Measured values as given in ChEMBL document CHEMBL1139072, “A molecular modeling analysis of novel non-hydroxamate inhibitors of TACE” (Bioorg Med Chem Lett, 2007).

Experiments:
[1] = target: Disintegrin and metalloproteinase domain-containing protein 17 (Sus scrofa, UniProt O77636); test: Inhibition of porcine TACE
[2] = Dissociation constant, pKa in water; type: physicochemical

Disintegrin and metalloproteinase domain-containing protein 17, sequence (O77636 whole entry, the tested form may be a part): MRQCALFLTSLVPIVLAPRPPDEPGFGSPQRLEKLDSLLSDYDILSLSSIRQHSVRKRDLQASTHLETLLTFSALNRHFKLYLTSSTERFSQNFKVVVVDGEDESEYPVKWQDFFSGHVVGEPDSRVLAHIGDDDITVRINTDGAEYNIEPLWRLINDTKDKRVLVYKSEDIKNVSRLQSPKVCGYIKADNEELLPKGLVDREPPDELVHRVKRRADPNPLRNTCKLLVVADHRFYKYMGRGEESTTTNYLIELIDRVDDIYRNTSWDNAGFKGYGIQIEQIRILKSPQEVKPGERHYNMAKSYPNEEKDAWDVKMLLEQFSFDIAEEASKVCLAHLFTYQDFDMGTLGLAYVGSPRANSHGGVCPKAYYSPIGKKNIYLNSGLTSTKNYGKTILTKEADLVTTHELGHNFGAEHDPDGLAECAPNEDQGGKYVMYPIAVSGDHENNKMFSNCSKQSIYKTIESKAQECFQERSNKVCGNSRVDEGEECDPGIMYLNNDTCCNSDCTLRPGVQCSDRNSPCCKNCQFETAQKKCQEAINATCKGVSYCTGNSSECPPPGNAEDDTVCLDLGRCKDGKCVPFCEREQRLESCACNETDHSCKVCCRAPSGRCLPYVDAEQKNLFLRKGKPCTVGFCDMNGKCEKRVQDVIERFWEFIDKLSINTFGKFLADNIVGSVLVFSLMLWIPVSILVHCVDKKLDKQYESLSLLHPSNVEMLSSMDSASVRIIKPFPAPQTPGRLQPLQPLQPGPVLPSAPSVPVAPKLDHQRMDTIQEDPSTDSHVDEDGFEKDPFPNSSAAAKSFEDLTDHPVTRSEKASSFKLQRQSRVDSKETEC

Compound | IC50 [1] [nM] | pKa [2]
Cc1cc(COc2ccc(NC(=O)C[C@H]3CCC[C@]34NC(=O)NC4=O)cc2)c2ccccc2n1 [listing 1 of 2 here] | 17 | –
Cc1cc(COc2ccc(C(=O)N[C@@H]3CNC[C@]34NC(=O)NC4=O)cc2)c2ccccc2n1 | 900 | –
Cc1cc(COc2ccc(NC(=O)[C@H]3CCC[C@]34NC(=O)NC4=O)cc2)c2ccccc2n1 | 230 | –
Cc1cc(COc2ccc(NC(=O)C[C@H]3CCC[C@]34NC(=O)NC4=O)cc2)c2ccccc2n1 [listing 2 of 2 here] | 900 | 8.9
Cc1cc(COc2ccc(NC(=O)[C@@H]3CCC[C@]34NC(=O)NC4=O)cc2)c2ccccc2n1 | 64 | –
Cc1cc(COc2ccc(C(=O)NCC3NC(=O)NC3=O)cc2)c2ccccc2n1 (centres undefined) | 98 | –
Cc1cc(COc2ccc(C3(N4CCN(C)CC4)C(=O)NC(=O)NC3=O)cc2)c2ccccc2n1 | 91 | 7.2
Cc1cc(COc2ccc([C@@]3(C)CCN([C@@H](C)C(=O)NO)C3=O)cc2)c2ccccc2n1 | < 1 | 9
Cc1cc(COc2ccc(NC(=O)C[C@@H]3CCC[C@]34NC(=O)NC4=O)cc2)c2ccccc2n1 | 7400 | –
Cc1cc(COc2ccc(NC(=O)C[C@@H]3CCC[C@@]34NC(=O)NC4=O)cc2)c2ccccc2n1 | 11 | –
Cc1cc(COc2ccc(C(=O)N[C@H]3CNC[C@@]34NC(=O)NC4=O)cc2)c2ccccc2n1 | 25 | –
